{
  "source": "patent US5739169A",
  "about": "“Aromatic compounds for inhibiting immune response” (Procept, Incorporated, priority 1996, dated 1998)",
  "data": [
    {"tested_on": "human transformed T cell line, H9", "assay": "H9 proliferation Assay", "assay_type": "cell-based", "details": "3 days culture, 3H-thymidine pulse on day 3, harvest 16 hours later", "method": "The human transformed T cell line, H9 (ATCC Rockville, Md.), was cultured at 3000/well in RPMI 1640 medium supplemented with 5 % human AB serum, glutamine (2 mM), penicillin/streptomycin (50 U/ml, 50 micrograms/ml), sodium pyruvate (1 mM), HEPES (10 mM), and non-essential amino acids (1X) in a total of 200 microliter/well in a 96 well plate. The H9 cells were cultured with and without various dilutions of test compound for 3 days.\nThe cells were pulsed on day 3 with 1 microCurie/well of ^3 H-thymidine using a standard procedure known in the art. The cells were then harvested 16 hours later onto glass fiber filters using a TOMTEC cell harvester. Cellular proliferation was assessed by thymidine incorporation and measured by liquid scintillation counting using a Beta plate counter (Pharmacia, Inc., Piscataway, N.J.). The IC 50 represents the amount of compound necessary to inhibit 50% of the thymidine incorporation.", "units": {"IC50": "µg/mL"}, "values": [
      {"smiles": "COc1cc(-c2ccc([N+](=O)[O-])c(OC)c2)ccc1Nc1ccccc1C(=O)O", "note": "[PRO4636]", "IC50": 3.2}
    ]},
    {"tested_on": "human peripheral blood lymphocyte (PBL)", "assay": "cells", "assay_type": "cell-based", "details": "not given", "units": {"IC50": "µg/mL"}, "values": [
      {"smiles": "COc1cc(-c2ccc(Nc3ccccc3-c3nn[nH]n3)c(OC)c2)ccc1N", "note": "[PRO5105]", "IC50": "> 1"},
      {"smiles": "COc1cc(-c2ccc(Nc3ccccc3C(=O)O)c(OC)c2)ccc1N", "note": "[PRO3249]", "IC50": 0.005},
      {"smiles": "COc1cccc(-c2ccc(Nc3ccccc3C(=O)O)c(OC)c2)c1", "note": "[PRO4403]", "IC50": 0.012},
      {"smiles": "Nc1ccc(C(=O)c2ccc(Nc3ccccc3C(=O)O)cc2)cc1", "note": "[PRO4708]", "IC50": 0.345},
      {"smiles": "O=C(O)c1ccccc1Nc1ccc(-c2ccccc2)cc1", "note": "[PRO4917]", "IC50": 0.296},
      {"smiles": "COc1cc(-c2ccc(Nc3ccccc3C(=O)O)c(OC)c2)ccc1Br", "note": "[PRO4402]", "IC50": 0.03},
      {"smiles": "COc1cc(-c2ccc(N(C)C)c(OC)c2)ccc1Nc1ccccc1C(=O)O", "note": "[PRO6365]", "IC50": 0.194},
      {"smiles": "COc1cc(-c2ccc(Nc3ccccc3C(=O)O)c(OC)c2)ccc1NC(C)=O", "note": "[PRO4379]", "IC50": 0.133},
      {"smiles": "COc1cc(-c2ccc(Nc3ccccc3C(=O)O)c(OC)c2)ccc1NC(=O)OC(C)(C)C", "note": "[PRO4323]", "IC50": 0.015},
      {"smiles": "CC(=O)Nc1ccc(-c2ccc(Nc3ccccc3C(=O)O)cc2)cc1", "note": "[PRO5023]", "IC50": "> 1"},
      {"smiles": "COC(=O)c1ccccc1Nc1ccc(-c2ccc(N)c(OC)c2)cc1OC", "note": "[PRO5021]", "IC50": 0.037},
      {"smiles": "COc1cc(-c2ccc([N+](=O)[O-])c(OC)c2)ccc1Nc1ccccc1-c1nn[nH]n1", "note": "[PRO5106]", "IC50": "> 1"},
      {"smiles": "Nc1ccc(-c2ccc(Nc3ccccc3C(=O)O)cc2)cc1", "note": "[PRO4707]", "IC50": 0.086},
      {"smiles": "CNc1ccc(-c2ccc(Nc3ccccc3C(=O)O)c(OC)c2)cc1OC", "note": "[PRO6370]", "IC50": 0.01}
    ]},
    {"tested_on": "PBLs", "assay": "Mixed Lymphocyte Reactions (MLR) Assay", "assay_type": "cell-based", "details": "Homo sapiens, 3H-thymidine pulse on day 5, harvest 16 hours later", "method": "Mixed Lymphocyte Reactions (MLR) Assay\nBlood samples were drawn from two donors and the lymphocytes were separated out by Ficoll gradient by standard procedures known in the art. The isolated lymphocytes from done 1 were left untreated and the cells from donor 2 where suspended in Hanks Balanced Salt Solution at 10^7 /ml and treated with 50 micrograms/ml mitomycin C for 30 minutes at 37° C.\nThe PBLs were cultured in RPMI 1640 medium containing 5% human AB serum, glutamine (2 mM), penicillin/streptomycin (50 micrograms/ml / 50 micrograms/ml), sodium pyruvate (1 mM) and HEPES buffer (10 mM). For assay purposes, 10^5 PBLs from each donor were added to each well of a 96-well plate in a total volume of 200 microliters along with various dilutions of test compound.\nThe cultures were pulsed with 1 microCurie ^3 H-thymidine on day 5 and harvested 16 hours later onto a glass fiber filter. Thymidine incorporation was measured by liquid scintillation counting using a Beta plate counter. The IC50 represents the amount of compound necessary to inhibit 50 % of the thymidine incorporation.", "units": {"IC50": "µg/mL"}, "values": [
      {"smiles": "Nc1cccc(C(=O)c2cccc(Nc3ccccc3C(=O)O)c2)c1", "note": "[PRO4919]", "IC50": 5}
    ]}
  ]
}
